Test results: patent publication US20070190554A1, “Novel binding site for retigabine on KCNQ5” (priority 2006, published 2007)
Entries after “also recorded” stand apart in the source; their conditions may differ. Where two headings read alike, the source gives them in different places.

Columns and labels:
[1] = target: KCNQ5 containing an S5 transmembrane domain from KCNQ1 (Homo sapiens, UniProt Q9NR82, A261I/A269T/F282Y/K264Q/L283F/S263R/V276G/V287A/W270L/Y260F); details: 50 μM retigabine
Protocol: Expression of KCNQ5 and KCNQ1 channels into Xenopus oocytes—Human KCNQ5 and KCNQ1 genes were cloned into a pKSM vector that has been engineered specifically for oocyte expression. […] Xenopus oocytes were injected with 46 nl solution containing approximately 9.2 ng cRNA using a Drumond Nanojet oocyte injector (Drummond Scientific Co., Broomall, Pa.). Electrophysiological recording was performed 3-7 days after injection.
Electrophysiology—All experiments were performed at room temperature (22-23° C.) using conventional oocyte two-electrode voltage clamp recording (TEVC). The recording electrodes were pulled from 1.5 mm glass pipette using a Sutter P-97 micropipette puller (Sutter Instrument, Novato, Calif.) and filled with 3M KCl. The pipette tip was carefully broken off to acquire the electrode resistance at 0.5-1 Mohm. A Dagan CA-1 amplifier (Dagan Corporation, Minneapolis Minn.) was used and the holding potential was clamped at −100 mV. To test voltage dependence of channel activation, a series of depolarized voltage pulses was applied. To observe the time course of retigabine's effect, a single (3 sec) voltage pulse at 40 mV was applied repeatedly at 15 sec intervals. A HEKA computer interface (HEKA Elektronik, Lambrecht, Germany) with Pulse 8.5 software was used to control the amplifier and digitized the data for analysis. Solutions and Chemicals—ND96 solution containing (in mM) NaCl, 96, KCl, 2, CaCl2, 1.8, MgCl2, 1, HEPES, 10 was used for oocyte incubation and recording. Retigabine was made as a stock solution in DMSO at 50 mM and diluted into desired concentrations just before application in experiments. […] In all experiments, DMSO was used less than 0.4%.
Compounds were applied to the cells via a fast bath perfusion system (ALA Scientific Instruments, Westbury, N.Y.), and a bath solution change was completed within 10 seconds.
Data analysis—Current amplitude was measured online using HEKA Pulsefit 8.5 software. To acquire channel conductance from macroscopic current, the K^+ reversal potential was approximated to be −80 mV in ND96 solution and the following equation was applied: G=I/(V+80), where G is the whole oocyte conductance, I is the whole oocyte current, and V is the voltage used to induce the current. Data were expressed as mean±SE, and the paired student t test was performed. Differences were considered to be significant at P<0.05.
To further dissect the action site of retigabine, the S5-S6 transmembrane domain from KCNQ1 was divided into two parts, the S5 transmembrane domain and the S6 transmembrane domain (with linker), and the corresponding chimeric channels of KCNQ5 contained S5 transmembrane domain or S6 transmembrane domain from KCNQ1.

KCNQ1 = KCNQ1 (Homo sapiens, UniProt P51787); details: background statement; cited from earlier work
mouse KCNQ5 polypeptide = mouse KCNQ5 polypeptide (Mus musculus, UniProt Q9JK45); details: Jensen et al. 2005; cited from earlier work
[2] = target: KCNQ5 containing an S5-S6 transmembrane domain from KCNQ1 (Homo sapiens, UniProt Q9NR82, A261I/A269T/A329S/A332S/F282Y/G330C/G335A/I307V/INS291VNESG/K264Q/K293V/L283F/L309V/L320Q/L323V/L326T/L327I/L333V/L334F/N292R/R325K/S263R/S296G/S328A/T297S/T306V/T318V/V276G/V287A/W270L/Y260F); details: 50 μM retigabine
Source text: Differences were considered to be significant at P<0.05.
All mutations were confirmed by DNA sequencing.

Wild type KCNQ5 = Wild type KCNQ5 (Homo sapiens, UniProt Q9NR82); details: cited from earlier work
KCNQ1(L171W) = target: T1, KCNQ1(L171W) (Homo sapiens, UniProt P51787, L266W); experiment: Two-electrode voltage clamp in Xenopus oocytes, KCNQ1(L171W)
T1 sequence (P51787 with tags, fused parts or gaps L266W): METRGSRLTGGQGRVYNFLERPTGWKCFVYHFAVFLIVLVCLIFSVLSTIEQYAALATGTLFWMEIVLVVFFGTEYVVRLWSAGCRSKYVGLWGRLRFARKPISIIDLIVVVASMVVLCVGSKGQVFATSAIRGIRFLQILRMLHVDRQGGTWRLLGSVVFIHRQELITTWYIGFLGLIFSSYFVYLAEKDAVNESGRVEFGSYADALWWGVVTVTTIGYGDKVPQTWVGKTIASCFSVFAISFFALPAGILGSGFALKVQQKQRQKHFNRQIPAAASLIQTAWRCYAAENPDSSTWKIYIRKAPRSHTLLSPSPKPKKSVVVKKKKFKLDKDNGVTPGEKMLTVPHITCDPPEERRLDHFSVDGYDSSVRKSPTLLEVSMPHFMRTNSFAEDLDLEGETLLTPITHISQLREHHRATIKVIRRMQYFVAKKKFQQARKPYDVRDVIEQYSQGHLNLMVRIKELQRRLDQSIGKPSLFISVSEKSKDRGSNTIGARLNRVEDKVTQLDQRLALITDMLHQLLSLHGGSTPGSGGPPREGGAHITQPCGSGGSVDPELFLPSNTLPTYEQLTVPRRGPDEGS

KCNQ5(A269T) = target: T2, KCNQ5(A269T) (Homo sapiens, UniProt Q9NR82, A269T); experiment: Two-electrode voltage clamp in Xenopus oocytes, S5 point mutant KCNQ5(A269T); type: cell-based; details: 50 μM retigabine; FIG. 3 bottom panel
T2 construct: mutations in KCNQ5 were generated for each of 7 residues modified individually to the corresponding in KCNQ1; expressed in transfected cells; host or cells: Xenopus oocytes injected with cRNA
Protocol: (§1) FIG. 3 Mutagenesis analysis of S5 domain in KCNQ5. Sequence alignment of all five members in KCNQ family is shown on the top. The most diverse residues between KCNQ1 and the other members are highlighted in bold case and the corresponding residues in KCNQ5 were individually mutated to their counterparts in KCNQ1. Then each mutant with single mutation was tested with 50 μM retigabine and the fold increase (IΔ/I0) in current amplitude was plotted in the graph on bottom. In all mutants, n equals 6.
(§2) The gene sequences were confirmed by DNA sequencing. […] Electrophysiological recording was performed 3-7 days after injection.
(§3) The S5 domains of all five KCNQ members were sequence aligned and searched for unique amino acid residues that might account for the lack of KCNQ1's response to retigabine. As shown in FIG. 3 upper panel, there are ten unmatched residues between KCNQ1 and KCNQ5. Seven of them highlighted in FIG. 3 may be unique for KCNQ1. Therefore, mutations in KCNQ5 were generated for each of 7 residues modified individually to the corresponding in KCNQ1. One mutant, KCNQ5(F282Y) lost its functionality when expressed in oocytes. […] Retigabine's effect on each of these mutants was then tested.

KCNQ1 wild-type = KCNQ1 wild-type (Homo sapiens, UniProt P51787); details: FIG. 4A
Source text: The steady state amplitudes of the currents evoked by a series of depolarized voltage pulses from −100 to 80 mV in 10 mV increment were normalized to the level evoked by the membrane potential of 80 mV in the control group. The holding potential was −100 mV.
Expression of KCNQ5 and KCNQ1 channels into Xenopus oocytes—Human KCNQ5 and KCNQ1 genes were cloned into a pKSM vector that has been engineered specifically for oocyte expression. The gene sequences were confirmed by DNA sequencing. […] The constructs were linearized by XbaI restriction enzyme (NEB, Beverly, Mass.). In vitro transcription was performed with an mMESSAGE mMACHINE® kit (Ambion, Austin, Tex.) and the cRNA was purified by phenol extraction. Xenopus oocytes were injected with 46 nl solution containing approximately 9.2 ng cRNA using a Drumond Nanojet oocyte injector (Drummond Scientific Co., Broomall, Pa.). Electrophysiological recording was performed 3-7 days after injection.
Electrophysiology—All experiments were performed at room temperature (22-23° C.) using conventional oocyte two-electrode voltage clamp recording (TEVC). […]
Data analysis—Current amplitude was measured online using HEKA Pulsefit 8.5 software. […] Data were expressed as mean±SE, and the paired student t test was performed. […]

rat KCNQ5 polypeptide = rat KCNQ5 polypeptide (Rattus norvegicus, UniProt F1LY25); details: Jensen et al. 2005; cited from earlier work
KCNQ5(W270L) = target: T3, KCNQ5(W270L) (Homo sapiens, UniProt Q9NR82, W270L); experiment: Two-electrode voltage clamp in Xenopus oocytes, S5 point mutant KCNQ5(W270L); type: cell-based; details: 50 μM retigabine; FIG. 3 bottom panel
T3 construct: expressed in transfected cells; host or cells: Xenopus oocytes injected with cRNA
Protocol: as §1, §2, §3

Chain of KCNQ5 containing an S5 transmembrane domain from KCNQ1 (Q9NR82 whole entry Y260F/A261I/S263R/K264Q/A269T/W270L/V276G/F282Y/L283F/V287A, the tested form may be a part): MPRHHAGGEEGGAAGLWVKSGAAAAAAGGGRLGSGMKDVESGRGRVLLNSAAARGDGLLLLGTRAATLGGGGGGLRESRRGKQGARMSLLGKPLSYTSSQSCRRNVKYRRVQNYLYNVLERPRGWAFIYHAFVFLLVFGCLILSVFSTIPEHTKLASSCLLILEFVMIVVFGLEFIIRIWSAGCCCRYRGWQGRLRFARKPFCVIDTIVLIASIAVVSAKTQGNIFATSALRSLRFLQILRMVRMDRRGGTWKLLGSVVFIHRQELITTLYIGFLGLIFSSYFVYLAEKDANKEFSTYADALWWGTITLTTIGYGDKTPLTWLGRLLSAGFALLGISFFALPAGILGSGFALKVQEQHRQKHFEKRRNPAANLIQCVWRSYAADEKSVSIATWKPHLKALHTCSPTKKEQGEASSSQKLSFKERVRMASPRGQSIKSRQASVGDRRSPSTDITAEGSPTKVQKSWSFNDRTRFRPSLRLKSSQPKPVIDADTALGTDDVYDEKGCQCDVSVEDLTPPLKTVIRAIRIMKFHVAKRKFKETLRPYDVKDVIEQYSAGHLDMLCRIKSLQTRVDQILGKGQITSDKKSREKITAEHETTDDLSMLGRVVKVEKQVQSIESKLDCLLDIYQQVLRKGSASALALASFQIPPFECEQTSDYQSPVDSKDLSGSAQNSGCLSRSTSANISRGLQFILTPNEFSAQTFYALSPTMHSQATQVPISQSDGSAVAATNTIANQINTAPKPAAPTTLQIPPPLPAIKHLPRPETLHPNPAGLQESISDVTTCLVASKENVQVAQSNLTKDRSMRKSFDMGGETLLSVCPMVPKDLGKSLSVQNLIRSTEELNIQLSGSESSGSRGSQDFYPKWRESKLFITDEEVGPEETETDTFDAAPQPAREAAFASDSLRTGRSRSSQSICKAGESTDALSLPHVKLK
Chain of KCNQ5 containing an S5-S6 transmembrane domain from KCNQ1 (Q9NR82 other isoform, or with tags, fused parts or gaps with the stated changes): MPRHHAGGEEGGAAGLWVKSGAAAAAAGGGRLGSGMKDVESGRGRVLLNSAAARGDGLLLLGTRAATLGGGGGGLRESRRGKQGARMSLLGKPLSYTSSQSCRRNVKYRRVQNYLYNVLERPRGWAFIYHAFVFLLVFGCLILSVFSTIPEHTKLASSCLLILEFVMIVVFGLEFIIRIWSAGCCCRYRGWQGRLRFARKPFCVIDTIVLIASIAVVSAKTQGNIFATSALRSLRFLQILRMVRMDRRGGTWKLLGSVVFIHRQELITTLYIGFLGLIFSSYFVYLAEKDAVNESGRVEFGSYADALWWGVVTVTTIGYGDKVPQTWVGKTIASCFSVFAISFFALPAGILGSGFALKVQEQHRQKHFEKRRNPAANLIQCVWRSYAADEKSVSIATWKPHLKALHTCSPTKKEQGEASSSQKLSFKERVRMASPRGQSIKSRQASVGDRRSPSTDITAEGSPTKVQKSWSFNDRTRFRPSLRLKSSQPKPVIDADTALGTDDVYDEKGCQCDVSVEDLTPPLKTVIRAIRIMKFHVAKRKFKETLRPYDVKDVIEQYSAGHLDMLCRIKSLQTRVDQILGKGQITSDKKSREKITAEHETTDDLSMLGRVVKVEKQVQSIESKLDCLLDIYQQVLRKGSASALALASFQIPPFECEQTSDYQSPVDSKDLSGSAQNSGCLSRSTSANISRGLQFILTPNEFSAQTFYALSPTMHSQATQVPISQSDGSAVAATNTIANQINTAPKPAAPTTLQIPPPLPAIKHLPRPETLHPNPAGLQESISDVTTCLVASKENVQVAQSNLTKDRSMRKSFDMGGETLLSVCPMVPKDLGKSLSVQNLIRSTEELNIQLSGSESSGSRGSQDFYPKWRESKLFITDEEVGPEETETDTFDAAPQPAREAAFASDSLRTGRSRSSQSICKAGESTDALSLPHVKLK
T3 sequence (Q9NR82 whole entry W270L): as the sequence (Q9NR82 whole entry Y260F/A261I/S263R/K264Q/A269T/W270L/V276G/F282Y/L283F/V287A, the tested form may be a part) above, with F260Y, I261A, R263S, Q264K, T269A, G276V, Y282F, F283L, A287V counted along it
Chain of Wild type KCNQ5 (Q9NR82 whole entry): as the sequence (Q9NR82 whole entry Y260F/A261I/S263R/K264Q/A269T/W270L/V276G/F282Y/L283F/V287A, the tested form may be a part) above, with F260Y, I261A, R263S, Q264K, T269A, L270W, G276V, Y282F, F283L, A287V counted along it
T2 sequence (Q9NR82 whole entry A269T): as the sequence (Q9NR82 whole entry Y260F/A261I/S263R/K264Q/A269T/W270L/V276G/F282Y/L283F/V287A, the tested form may be a part) above, with F260Y, I261A, R263S, Q264K, L270W, G276V, Y282F, F283L, A287V counted along it
Chain of rat KCNQ5 polypeptide (F1LY25 1-951): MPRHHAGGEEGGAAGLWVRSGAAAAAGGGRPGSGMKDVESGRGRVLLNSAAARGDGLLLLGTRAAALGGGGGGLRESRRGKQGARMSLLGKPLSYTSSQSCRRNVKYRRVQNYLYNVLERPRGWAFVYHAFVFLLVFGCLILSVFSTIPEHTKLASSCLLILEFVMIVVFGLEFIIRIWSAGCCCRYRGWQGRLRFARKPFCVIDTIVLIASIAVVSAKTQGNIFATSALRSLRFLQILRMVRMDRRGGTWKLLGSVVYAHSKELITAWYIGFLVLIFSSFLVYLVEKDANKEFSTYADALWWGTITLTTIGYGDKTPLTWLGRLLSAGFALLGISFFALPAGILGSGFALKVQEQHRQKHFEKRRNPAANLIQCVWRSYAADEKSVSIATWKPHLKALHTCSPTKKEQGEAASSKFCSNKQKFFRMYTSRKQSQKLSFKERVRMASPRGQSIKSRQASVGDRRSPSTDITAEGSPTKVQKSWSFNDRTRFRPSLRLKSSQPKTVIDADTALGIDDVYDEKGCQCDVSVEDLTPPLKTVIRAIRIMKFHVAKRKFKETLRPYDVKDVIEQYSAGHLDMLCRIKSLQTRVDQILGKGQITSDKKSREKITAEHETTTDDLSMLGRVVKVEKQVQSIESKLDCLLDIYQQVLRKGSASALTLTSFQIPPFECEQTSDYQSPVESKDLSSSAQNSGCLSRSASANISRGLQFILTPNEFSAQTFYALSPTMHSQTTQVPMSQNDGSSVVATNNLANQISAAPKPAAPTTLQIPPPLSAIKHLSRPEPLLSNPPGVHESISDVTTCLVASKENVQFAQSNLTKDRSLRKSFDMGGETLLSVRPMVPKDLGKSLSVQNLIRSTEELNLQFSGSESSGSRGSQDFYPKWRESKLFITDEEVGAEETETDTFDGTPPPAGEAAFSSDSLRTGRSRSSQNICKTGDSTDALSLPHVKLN
Chain of mouse KCNQ5 polypeptide (Q9JK45 whole entry, the tested form may be a part): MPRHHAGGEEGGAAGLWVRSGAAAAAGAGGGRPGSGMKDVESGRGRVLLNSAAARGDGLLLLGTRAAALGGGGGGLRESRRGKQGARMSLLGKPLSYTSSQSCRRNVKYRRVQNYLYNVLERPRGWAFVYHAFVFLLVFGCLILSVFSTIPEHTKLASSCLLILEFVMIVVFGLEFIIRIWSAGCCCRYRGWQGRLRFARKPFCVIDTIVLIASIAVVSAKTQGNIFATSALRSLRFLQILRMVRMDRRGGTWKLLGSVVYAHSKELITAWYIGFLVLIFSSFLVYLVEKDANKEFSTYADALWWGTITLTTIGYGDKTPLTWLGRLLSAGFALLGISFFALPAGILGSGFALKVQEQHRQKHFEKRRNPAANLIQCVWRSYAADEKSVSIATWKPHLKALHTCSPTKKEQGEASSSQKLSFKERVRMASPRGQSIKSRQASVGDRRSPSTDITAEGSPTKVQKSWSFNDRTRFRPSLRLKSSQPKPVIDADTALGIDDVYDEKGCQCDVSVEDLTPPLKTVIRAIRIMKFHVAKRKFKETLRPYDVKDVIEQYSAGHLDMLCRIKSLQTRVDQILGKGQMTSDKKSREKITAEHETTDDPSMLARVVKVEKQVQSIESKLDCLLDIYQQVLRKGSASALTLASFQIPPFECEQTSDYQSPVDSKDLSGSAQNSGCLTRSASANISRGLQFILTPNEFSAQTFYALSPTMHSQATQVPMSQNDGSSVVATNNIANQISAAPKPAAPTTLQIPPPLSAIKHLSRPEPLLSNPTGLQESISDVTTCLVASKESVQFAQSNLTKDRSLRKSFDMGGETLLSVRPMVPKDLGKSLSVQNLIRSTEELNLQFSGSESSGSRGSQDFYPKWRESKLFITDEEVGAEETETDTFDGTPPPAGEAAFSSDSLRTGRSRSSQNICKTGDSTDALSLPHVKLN

In the case of `CCOC(=O)Nc1ccc(NCc2ccc(F)cc2)cc1N` [retigabine, N-(2-amino-4-(4-fluorobenzylamino)-phenyl)carbamic acid ethyl ester], the “channel current induced by depolarization to 40 mV” value ([1]; 5 min of bath application) is reported as “remained unchanged”, the “current amplitude and voltage dependence of the currents (I-V curves before and after treatment)” value ([1]; FIG. 2A right panel, FIG. 2C) is reported as “Neither current amplitude nor voltage dependence of the currents was modified” and the “effect on the mutant channel” value ([1]; FIG. 2B) is reported as “no longer had effect”. For the same compound, the “current (I)-voltage relationship in the absence vs presence of retigabine” value ([1]; p>0.05) was “No significant difference”, the “enhancing effect on the channel” value (KCNQ1) was “no enhancing effect” and the “sensitivity of the channel to retigabine” value (mouse KCNQ5 polypeptide) was “sensitive”. The “current (I)-voltage relationship in the absence vs presence of retigabine” value ([2]; 5 min after the application, p>0.05) was “No significant difference”, the “change of current amplitude and voltage dependent activation” value ([2]; 5 min application period, FIG. 1C) was “neither current amplitude nor voltage dependent activation changed significantly” and the “effect on channel activities” value ([2]; oocytes, FIGS. 1A and 1B) was “no longer augmented the channel activities”. For the same compound, the “responsiveness of the channel to retigabine” value (Wild type KCNQ5; Wickendon et al. 2001) was “responsive”, the “opening of KCNQ channels” value (Wild type KCNQ5; background statement) was “open” and the “steady state current amplitude” value (KCNQ1(L171W); 50 μM retigabine, FIG. 4B) was “clearly reduced”. For the same compound, the “voltage dependence of channel activation” value (KCNQ1(L171W); FIG. 4D and inset (200 μM)) was “modified the voltage dependence of channel activation”, the “activation kinetics of the current” value (KCNQ1(L171W); current evoked at 80 mV, FIG. 4C) was “from a single to a double exponential activation time course” and the “kind of effect on the channel (activated or blocked)” value (KCNQ1(L171W); oocytes, TEVC) was “blocked”. For the same compound, the inhibition at 200 µM (KCNQ1(L171W); read-out: inhibition of the steady-state current) was 62.5%, the “response to retigabine (fold increase IΔ/I0 in current amplitude)” value (KCNQ5(A269T)) was “significantly less response” and the “response of channel current” value (KCNQ1 wild-type; 50 μM retigabine) was “no significant response”. For the same compound, the “response of channel current” value (KCNQ1 wild-type; 200 μM retigabine) was “slightly inhibitory response”, the “sensitivity of the channel to retigabine” value (rat KCNQ5 polypeptide) was “sensitive” and the “response to retigabine (fold increase IΔ/I0 in current amplitude)” value (KCNQ5(W270L)) was “significantly less response; also recorded: completely lost the response”.
